Results as given in US20230032101A1, “FIVE-MEMBERED HETEROCYCLIC OXOCARBOXYLIC ACID COMPOUND AND MEDICAL USE THEREOF” (Shanghai Institute of Materia Medica, Chinese Academy of …, priority 2019, published 2023).

Legend:
Format in all cases: cell-based
[1] = tested on: type I interferon pathway (ISG) in human THP1-Blue-ISG cells; assay: Activation of type I interferon pathway (ISG) in human THP1-Blue-ISG cells (Quanti-Blue, OD650); conditions: 24 h, Compound OD650/Control OD650, ≥2 times considered valid; for fold induction at 10 µM / fold induction at 50 µM: Homo sapiens, THP1-Blue ISG, read-out: Fold Change
Method: 20 μL of compound diluted with physiological saline was added to each well of a 96-well cell culture plate, the positive control compound was ADU-S100, and the solvent control group was added with 20 μL of physiological saline containing DMSO. THP1-Blue-ISG cells were counted, the cell concentration was adjusted to 5×10^5/mL, and 180 μL of cells were added to each well for incubation. Therefore, the final volume of each test well was 200 μL, the content of DMSO was 0.1%/0.5%, the test concentration of the compound was 10/50 μM, and the positive control compound was ADU-S100 at a final concentration of 10 μM, and incubated for 24 hours for detection.
After 24 hours, 20 μL of the culture solution was took out from each well to a new 96-well plate, 180 μL of chromogenic solution Quanti-Blue was added, placed in a 37° C. incubator, and the OD650 value was measured after 0.5-2 hours. The experiment was repeated twice.
The experimental results were used to evaluate the ability of compounds to induce the secretion of type I interferon pathway (ISG) by the Fold Change, which was calculated as follows:
Fold Change=Compound OD650/Control OD650, wherein the results of ≥2 times were considered valid.

[2] = tested on: type I interferon pathway (ISG) in human THP1-Blue-ISG cells; assay: as above; conditions: 24 h, Compound OD650/Control OD650, ≥2 times considered valid, read-out: Fold Change
[3] = tested on: type I interferon pathway in murine Raw-lucia cells; assay: Activation of type I interferon pathway in murine Raw-lucia cells (QUANTI-Luc luminescence); conditions: Mus musculus, 24 h, Compound Luminescence/Control Luminescence, ≥2 times considered valid, read-out: Fold Change
Method: Raw-lucia cells were counted, the cell concentration was adjusted to 5×10^5/mL, and 180 μL of cells were added to each well for incubation. 20 μL of compound diluted with physiological saline was added to each well of a 96-well cell culture plate after cells were adhered, the concentration of the compound was 50 μM/100 μM.
After 24 hours, 20 μL of the culture medium was took out from each well to a new 96-well plate with bottom-transmitting, 50 μL of the luciferase detection reagent QUANTI-Luc™ was added, and the […] was measured immediately (in the dark). The experiment was repeated twice.

## Nc1ncnc2c1ncn2[C@@H]1O[C@@H]2COP(=O)([S-])O[C@@H]3[C@H](O)[C@@H](COP([O-])(=S)O[C@H]2[C@H]1O)O[C@H]3n1cnc2c(N)ncnc21.[Na+].[Na+] (some centres unmarked) [ADU-S100, reference compound]
[1]; 10 μM
  Fold Change: 12.45@10 μM

## O=C(O)CC(=O)c1cc(-c2c[nH]c3ccccc23)cs1 [Example I-1, 3-(4-(1H-indol-3-yl)thiophen-2-yl)-3-oxopropionic Acid]
[1]; 10 μM
  fold induction at 10 µM: 14.3

## O=C(O)CC(=O)c1cc(-c2c[nH]c3cc(F)ccc23)cs1 [Example I-2, 3-(4-(6-fluoro-1H-indol-3-yl)thiophen-2-yl)-3-oxopropionic acid]
[1]; 10 μM
  fold induction at 10 µM: 11

## O=C(O)CC(=O)c1cc(-c2c[nH]c3c(F)cccc23)cs1 [Example I-3, 3-(4-(7-fluoro-1H-indol-3-yl)thiophen-2-yl)-3-oxopropionic acid]
[1]; 10 μM
  fold induction at 10 µM: 9.82

## O=C(O)CC(=O)c1cc(-c2c[nH]c3ccc(F)cc23)cs1 [Example I-4, 3-(4-(5-fluoro-1H-indol-3-yl)thiophen-2-yl)-3-oxopropionic acid]
[1]; 10 μM
  fold induction at 10 µM: 9.95

## O=C(O)CCCC(=O)c1cc(-c2c[nH]c3ccccc23)cs1 [Example I-13, 5-(4-(1H-indol-3-yl)thiophen-2-yl)-5-oxopentanoic Acid]
[2]
  fold induction at 30 µM: 12.6

## O=C(O)CCCC(=O)c1cc(-c2c[nH]c3c(F)cccc23)cs1 [Example I-14, 5-(4-(7-fluoro-1H-indol-3-yl)thiophen-2-yl)-5-oxopentanoic Acid]
[1]
  fold induction at 50 µM: 1.96

## COC(=O)CC(=O)c1cc(-c2c[nH]c3ccccc23)cs1 [Example I-16, methyl 3-(4-(1H-indol-3-yl)thiophen-2-yl)-3-oxopropionate]
[1]; 10 μM
  fold induction at 10 µM: 14.3

## COC(=O)CC(=O)c1cc(-c2c[nH]c3cc(F)ccc23)cs1 [Example I-17, methyl 3-(4-(6-fluoro-1H-indol-3-yl)thiophen-2-yl)-3-oxopropionate]
[1]; 10 μM
  fold induction at 10 µM: 11

## COC(=O)CC(=O)c1cc(-c2c[nH]c3c(F)cccc23)cs1 [Example I-18, methyl 3-(4-(7-fluoro-1H-indol-3-yl)thiophen-2-yl)-3-oxopropanoate]
[1]; 10 μM
  fold induction at 10 µM: 9.8

## COC(=O)CC(=O)c1cc(-c2c[nH]c3ccc(F)cc23)cs1 [Example I-19, methyl 3-(4-(5-fluoro-1H-indol-3-yl)thiophen-2-yl)-3-oxopropionate]
[1]; 10 μM
  fold induction at 10 µM: 10

## COC(=O)CC(=O)c1cc(-c2coc3ccccc23)cs1 [Example I-26, methyl 3-(4-(benzofuran-3-yl)thiophen-2-yl)-3-oxopropanoate]
[2]; 20 μM
  fold induction at 20 µM: 14.6

## COC(=O)CC(=O)c1cc(-c2coc3ccccc23)co1 [Example I-31, methyl 3-(4-(benzofuran-3-yl)furan-2-yl)-3-oxopropanoate]
[2]
  fold induction at 30 µM: 43.2

## COC(=O)CC(=O)c1cc(-c2ccc(OC)c(OC)c2)co1 [Example I-34, methyl 3-(4-(3,4-dimethoxyphenyl)furan-2-yl)-3-oxopropanoate]
[2]
  fold induction at 30 µM: 23.7

## COC(=O)CC(=O)c1cc(-c2ccc3ccoc3c2)co1 [Example I-36, methyl 3-(4-(benzofuran-6-yl)furan-2-yl)-3-oxopropanoate]
[2]
  fold induction at 30 µM: 29.7

## COC(=O)CC(=O)c1cc(-c2c[nH]c3cc(F)ccc23)co1 [Example I-37, methyl 3-(4-(6-fluoro-1H-indol-3-yl)furan-2-yl)-3-oxopropanoate]
[1]; 10 μM
  fold induction at 10 µM: 71.5

## COC(=O)CC(=O)c1cc(-c2c[nH]c3c(F)cccc23)co1 [Example I-38, methyl 3-(4-(7-fluoro-1H-indol-3-yl)furan-2-yl)-3-oxopropanoate]
[1]; 10 μM
  fold induction at 10 µM: 77.2

## COC(=O)CC(=O)c1cc(-c2c[nH]c3cccc(F)c23)co1 [Example I-39, methyl 3-(4-(4-fluoro-1H-indol-3-yl)furan-2-yl)-3-oxopropanoate]
[1]; 10 μM
  fold induction at 10 µM: 59.5

## COC(=O)CC(=O)c1cc(-c2c[nH]c3ccc(F)cc23)co1 [Example I-40, methyl 3-(4-(5-fluoro-1H-indol-3-yl)furan-2-yl)-3-oxopropanoate]
[1]; 10 μM
  fold induction at 10 µM: 53.7

## COC(=O)CC(=O)c1cc(-c2c[nH]c3ccc(OC)cc23)cs1 [Example I-42, methyl 3-(4-(5-methoxy-1H-indol-3-yl)thiophen-2-yl)-3-oxopropanoate]
[1]; 10 μM
  fold induction at 10 µM: 61.8

## COC(=O)CC(=O)c1cc(-c2c[nH]c3ccc(OC)cc23)co1 [Example I-43, methyl 3-(4-(5-methoxy-1H-indol-3-yl)furan-2-yl)-3-oxopropanoate]
[1]; 10 μM
  fold induction at 10 µM: 23.3

## O=C(O)CCC(=O)c1cc(-c2csc3ccccc23)cs1 [I′-4, 4-(4-(benzo[b]thiophen-3-yl)thiophen-2-yl)-4-oxobutyric Acid]
[1]
  fold induction at 50 µM: 18.4

## O=C(O)CCC(=O)c1cc(-c2cccc3sccc23)cs1 [I′-10, 4-(4-(benzo[b]thiophen-4-yl)thiophen-2-yl)-4-oxobutyric Acid]
[1]
  fold induction at 50 µM: 15.1

## O=C(O)CCC(=O)c1cc(-c2coc3ccccc23)cs1 [I′-14, 4-(4-(benzofuran-3-yl)thiophen-2-yl)-4-oxobutyric Acid]
[3]
  fold induction at 100 µM: 18.1
[2]
  fold induction at 25 µM: 20.7

## O=C(O)CCC(=O)c1cc(-c2coc3ccccc23)co1 [I′-17, 4-(4-(benzofuran-3-yl)furan-2-yl)-4-oxobutyric acid]
[3]
  fold induction at 50 µM: 12.5
[2]
  fold induction at 25 µM: 21.6

## O=C(O)CCC(=O)c1cc(-c2c[nH]c3ccccc23)co1 [I′-30, 4-(4-(1H-indol-3-yl)furan-2-yl)-4-oxobutyric Acid]
[3]
  fold induction at 100 µM: 8.13
[2]; 12.5 μM
  fold induction at 12.5 µM: 22.7

## CC(CC(=O)c1cc(-c2coc3ccccc23)co1)C(=O)O (centres unmarked) [I′-37, 4-(4-(benzofuran-3-yl)furan-2-yl)-2-methyl-4-oxobutyric Acid]
[3]
  fold induction at 50 µM: 3.79

## O=C(O)CCC(=O)c1cc(-c2c[nH]c3cc(F)ccc23)co1 [I′-38, 4-(4-(6-fluoro-1H-indol-3-yl)furan-2-yl)-4-oxobutyric Acid]
[3]
  fold induction at 50 µM: 7.1
[1]; 10 μM
  fold induction at 10 µM: 7.15

## O=C(O)CCC(=O)c1cc(-c2coc3cc(F)ccc23)co1 [I′-42, 4-(4-(6-fluorobenzofuran-3-yl)furan-2-yl)-4-oxobutyric Acid]
[3]
  fold induction at 100 µM: 7.45
[2]
  fold induction at 30 µM: 16.8

## O=C(O)CCC(=O)c1cc(-c2c[nH]c3cc(F)ccc23)cs1 [I′-46, 4-(4-(6-fluoro-1H-indol-3-yl)thiophen-2-yl)-4-oxobutyric Acid]
[3]
  fold induction at 100 µM: 31.4
[1]; 10 μM
  fold induction at 10 µM: 11.3

## O=C(O)CCC(=O)c1cc(-c2c[nH]c3ccc(F)cc23)cs1 [I′-48, 4-(4-(5-fluoro-1H-indol-3-yl)thiophen-2-yl)-4-oxobutyric Acid]
[3]
  fold induction at 100 µM: 7.63
[2]
  fold induction at 30 µM: 14.7

## O=C(O)CCC(=O)c1cc(-c2c[nH]c3c(F)cccc23)cs1 [I′-49, 4-(4-(7-fluoro-1H-indol-3-yl)thiophen-2-yl)-4-oxobutyric Acid]
[3]
  fold induction at 50 µM: 36.2
[1]; 10 μM
  fold induction at 10 µM: 10.3

## COC(=O)CCC(=O)c1cc(-c2c[nH]c3c(F)cccc23)cs1 [I′-50, Methyl 4-(4-(7-fluoro-1H-indol-3-yl)thiophen-2-yl)-4-oxobutyrate]
[1]; 10 μM
  fold induction at 10 µM: 68.1

## O=C(O)CCC(=O)c1cc(-c2c[nH]c3cccc(F)c23)cs1 [I′-51, 4-(4-(4-fluoro-1H-indol-3-yl)thiophen-2-yl)-4-oxobutyric Acid]
[3]
  fold induction at 100 µM: 9.75
[1]; 10 μM
  fold induction at 10 µM: 5.27

## O=C(O)CCC(=O)c1cc(-c2coc3ccc(F)cc23)cs1 [I′-54, 4-(4-(5-fluorobenzofuran-3-yl)thiophen-2-yl)-4-oxobutyric Acid]
[3]
  fold induction at 100 µM: 4.5

## O=C(O)CCC(=O)c1cc(-c2coc3c(F)cccc23)cs1 [I′-55, 4-(4-(7-fluorobenzofuran-3-yl)thiophen-2-yl)-4-oxobutyric Acid]
[3]
  fold induction at 50 µM: 12.2
[2]
  fold induction at 30 µM: 16

## O=C(O)CCC(=O)c1scc(-c2c[nH]c3ccccc23)c1F [I′-56, 4-(3-fluoro-4-(1H-indol-3-yl)thiophen-2-yl)-4-oxobutyric Acid]
[3]
  fold induction at 50 µM: 12.9
[2]
  fold induction at 30 µM: 14.9

## O=C(O)CCC(=O)c1cc(-c2c[nH]c3c(F)cccc23)co1 [I′-58, 4-(4-(7-fluoro-1H-indol-3-yl)furan-2-yl)-4-oxobutyric Acid]
[3]
  fold induction at 100 µM: 14.2
[1]; 10 μM
  fold induction at 10 µM: 4.14
